Experimental data reported in patent US20090312277A1, “Compositions And Methods For Reversing Or Preventing Resistance Of A Cancer Cell To A Cytotoxic Agent” (priority 2004, published 2009).
Peptide text beside a SMILES is read from it. * marks the point of attachment. Cbz = O=C(OCc1ccccc1)*

Tests used:
Purified cathepsin L = biological target: T1, Purified cathepsin L (Homo sapiens, UniProt P07711); assay: Cathepsin L activity, fluorogenic substrate (CV-Cathepsin L Detection Kit); assay type: biochemical; details: inhibitor 10 μM, 200 ng cathepsin L; positive control 4e+5 AU, negative control 0.75e+5 AU
T1 construct: purchased Biomol, Plymouth Meeting, Pa
T1 sequence (P07711 114-333, species assumed): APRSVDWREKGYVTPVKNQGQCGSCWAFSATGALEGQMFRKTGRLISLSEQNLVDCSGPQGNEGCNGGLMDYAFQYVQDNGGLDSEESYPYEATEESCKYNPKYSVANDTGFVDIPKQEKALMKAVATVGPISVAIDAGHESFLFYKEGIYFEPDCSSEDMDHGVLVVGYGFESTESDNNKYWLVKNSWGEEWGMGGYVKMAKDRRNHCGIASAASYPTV
Method: Cathepsin L activity was measured using a commercially available kit according to the manufacturer's procedure (CV-Cathepsin L Detection Kit; Biomol, Plymouth Meeting, Pa.). Purified cathepsin L (Biomol, Plymouth Meeting, Pa.) (200 ng) was incubated with each inhibitor (10 μM) in a 96 well plate for 15 min at room temperature in 100 μl of reaction buffer (100 mM sodium acetate pH 5, 1 mM EDTA (ethylenediaminetetraacetic acid), and 4 mM dithiothreitol). The protease inhibitors tested were: lactacystin and inhibitors of cathepsin L, B, S, and K. 100 μl of a fluorogenic substrate (CV-Cathepsin L Detection Kit; Biomol, Plymouth Meeting, Pa.) were added and incubated for an additional 30 min at room temperature. Fluorescence was measured in a plate reader (Victor Multilabel Counter, Perkin Elmer) at 380 nm excitation and […] emission wavelengths.

[1] = system: Drug-sensitive cells SKN-SH; assay: Prevention of development of doxorubicin resistance, viable cell count, SKN-SH; assay type: cell-based, human; details: Dox 10^−9 M + inhibitor 10 μM
Excerpt: (§1) As discussed above, inhibition of cathepsin L enhanced drug response only in drug-resistant cells. Another aspect of the present invention was to determine whether treatment of drug-sensitive cancer cells with this drug combination prevents them from becoming drug resistant. […] After 4 days in culture, the surviving cells were subjected to the same treatment for an additional four days. The cells were then subjected to two subsequent treatments for four days with 2.5×10^−8 M doxorubicin with or without the cathepsin L inhibitor at 10 μM. The surviving cells were then treated with doxorubicin 5×10^−8 M doxorubicin with or without cathepsin L (10 μM) for four days. At the end of each incubation period, viable cells were counted.

[2] = system: Drug-sensitive cells Saos2; assay: Prevention of development of doxorubicin resistance, viable cell count, Saos2; assay type: cell-based; details: Dox 10^−9 M + inhibitor 10 μM
Excerpt: as §1

[3] = system: SKN-SH doxorubicin-resistant cells; assay: Viable cell count of SKN-SH doxorubicin-resistant cells with other chemotherapeutic agents; details: Homo sapiens, SK-N-SH, 72 h; for viability at 100 µM: read-out: number of viable cells, chemotherapeutic agent alone at 10^−4 M; for viability at 10 µM: read-out: number of viable cells, chemotherapeutic agent alone at 10^−5M; for viability at 1 µM: read-out: number of viable cells, chemotherapeutic agent alone at 10^−6 M; for viability at 0.1 µM: read-out: number of viable cells, chemotherapeutic agent alone at 10^−7M; for viability at 0.01 µM: read-out: number of viable cells, chemotherapeutic agent alone at 10^−8M
Method: SHN-SH cells were prepared in the manner described above. […] Viable cells were counted after 72 hours of incubation with the melphalan, etoposide, mitoxantrone, cyclophosphamide, and tamoxifen.

[4] = system: Doxorubicin resistant human neuroblastoma cells (SKN-SH/R); assay: Tumor growth of SKN-SH/R cells injected into nude mice; assay type: in vivo
Method: Doxorubicin resistant human neuroblastoma cells (SKN-SH/R) cells grown into 75 cm^2 flasks were harvested by trypsinization and centrifuged to remove trypsin. The pellet was then reconstituted in culture medium at 10^7 cell/ml. On day one, 100 μl (10^6 cells) were injected to the right flank of nude mice (5 per group) and after the tumor became palpable at day 11, mice were assigned to four groups: 1) controls (treated with the vehicle DMSO), 2) Dox. 1.5 mg/kg (treated with doxorubicin alone 1.5 mg/Kg), 3) iCL 30 mg/Kg (treated with cathepsin L inhibitor alone at 30 mg/Kg), and 4) Dox 1.5 mg/Kg+iCL 30 mg/Kg (treated with the combination of doxorubicin 1.5 mg/Kg and cathepsin L inhibitor 30 mg/Kg). Intraperetoneal injections were given on day 11, day 14, and day 17.

SKN-SH/R cells = assay: MTT cytotoxicity assay, doxorubicin-resistant neuroblastoma cells; assay type: cell-based; details: Homo sapiens, SK-N-SH, 96 h, read-out: IC50 (concentration at which 50% of cells remained viable) of the cytotoxic agent alone, SKN-SH/R cells, agent alone (control cells), 96 hours, MTT
Method: (§2) Human neuroblastoma SKN-SH cells (ATCC Cat. No. HTB-11) were cultured in Dulbecco's Modified Eagles Medium (DMEM; Gibco, Grand Island, N.Y.) supplemented with 10% fetal bovine serum (FBS; Sigma-Aldrich, St. Louis, Mo.) at 37° C. in a 95% Air/5% CO2 atmosphere. Resistant cells to doxorubicin (SKN-SH/R) were selected by stepwise exposure to drug concentrations ranging from 10^−9 M through 10^−6 M over a time period of three months. The resulting cell line was subjected to treatment with the doxorubicin alone or in combination with: proteosome inhibitor (Lactacystin), cathepsin B inhibitor (L-3-trans-(Propylcarbamoyl)oxirane-2-carbonyl]-L-isoleucyl-L praline), cathespin L inhibitor (Z-Phe-Tyr(t-Bu)-diazomethylketone), cathespin K inhibitor (1,3-Bis(N-CBZ-Leu-NH)-2-propanonel,3 -Di(N-carbonbenzoyloxy-L-leucyl)amino acetone), or cathespin S inhibitor (Z-Phe-Leu-COCHO.H2O), (all available from Calbiochem-Novabiochem, San Diego) at 10 μM each to determine whether they affect cell response to doxorubicin.
(§3) Cytotoxic activity of doxorubicin and cysteine protease inhibitors were quantitatively determined by a calorimetric assay utilizing 3-(4,5-dimethyl-2-thiazolyl) 2,5-diphenyl tetrazolium bromide (MTT; Sigma-Aldrich, St. Louis, Mo.). […] The optical density of this solution was measured at 570 nm and the percentage of viable cells estimated by comparison with untreated control cells. […]

SKN-SH wild type cells = assay: MTT cytotoxicity assay, SKN-SH wild type cells; assay type: cell-based; details: Homo sapiens, SK-N-SH, 96 h, read-out: IC50 of the cytotoxic agent alone
Method: as §2, §3

cathepsin L = assay: Cathepsin L expression by Western blot in siRNA-transfected Saos2-R cells; assay type: cell-based, human
Excerpt: The human cathepsin L siRNA was designed in our laboratory by studying a cDNA sequence of the human cathepsin L gene (SEQ ID NO: 2). We selected a segment defined by nucleotide numbers 91-111, sent that sequence to a contract laboratory (Dharmacon, Lafayette, Colo.), which synthesized an siRNA molecule based on the aforementioned segment. The segment of the human cathepsin L cDNA we used was: […] (91-111) (SEQ ID NO: 2). On the day before transfection, 3×10^5 drug resistant osteosarcoma cells (Saos2-R) were seeded in 6-well plates and grown in 2.5 ml of DMEM supplemented with 10% FBS. After 24 hours in culture, 25 μl of 20 μM stock solution of siRNA duplexes were transfected into cells with GeneSilencer™ SiRNA Transfection Reagent Kit (Gene Therapy Systems, Inc., San Diego, Calif.). Briefly, adherent cells were transfected in 6 well plates. Cells were about 70% confluent. In one tube, 5 μl of GeneSilencer™ was mixed with 25 μl of serum free medium. In a second tube, 25 μl of siRNA diluent was mixed with […] of serum free medium and 20 μl of siRNA (100 nM). After incubation of tubes 1 and 2, at room temperature for 5 min, they were mixed together into tube 3 and incubated for an additional 5 min. […] The cells were counted and protein lysates were used to detect cathepsin L expression by Western blot as described above.

[5] = system: drug resistant osteosarcoma cells (Saos2-R); assay: Cell count of drug resistant osteosarcoma cells after siRNA or inhibitor and doxorubicin; assay type: cell-based
Excerpt: The human cathepsin L siRNA was designed in our laboratory by studying a cDNA sequence of the human cathepsin L gene (SEQ ID NO: 2). We selected a segment defined by nucleotide numbers 91-111, sent that sequence to a contract laboratory (Dharmacon, Lafayette, Colo.), which synthesized an siRNA molecule based on the aforementioned segment. The segment of the human cathepsin L cDNA we used was: […] (91-111) (SEQ ID NO: 2). On the day before transfection, 3×10^5 drug resistant osteosarcoma cells (Saos2-R) were seeded in 6-well plates and grown in 2.5 ml of DMEM supplemented with 10% FBS. After 24 hours in culture, 25 μl of 20 μM stock solution of siRNA duplexes were transfected into cells with GeneSilencer™ SiRNA Transfection Reagent Kit (Gene Therapy Systems, Inc., San Diego, Calif.). Briefly, adherent cells were transfected in 6 well plates. Cells were about 70% confluent. In one tube, 5 μl of GeneSilencer™ was mixed with 25 μl of serum free medium. In a second tube, 25 μl of siRNA diluent was mixed with […] of serum free medium and 20 μl of siRNA (100 nM). After incubation of tubes 1 and 2, at room temperature for 5 min, they were mixed together into tube 3 and incubated for an additional 5 min. The content of tube 3 was added to the cells in the 6 well plates and incubated for 2 days before the addition of the drug. After 48 hours of incubation, doxorubicin (10^−5 M) was added and maintained in culture for an additional 48 hours before analysis. The cells were counted and protein lysates were used to detect cathepsin L expression by Western blot as described above.

[6] = cathepsin inhibitor 30 mg/Kg + doxorubicin 1.5 mg/Kg

CCCNC(=O)[C@H]1O[C@@H]1C(=O)N[C@H](C(=O)N1CCC[C@H]1C(=O)O)[C@@H](C)CC (relative stereo) [cathepsin B inhibitor]
cathepsin L activity (arbitrary units) in presence of inhibitor (Purified cathepsin L): 3.5e+5 AU

CC(C)C[C@H](NC(=O)OCc1ccccc1)C(=O)NCC(=O)CNC(=O)[C@H](CC(C)C)NC(=O)OCc1ccccc1 [cathepsin K inhibitor, 1,3-Bis(N-CBZ-Leu-NH)-2-propanonel,3 -Di(N-carbonbenzoyloxy-L-leucyl)amino acetone]
cathepsin L activity (arbitrary units) in presence of inhibitor (Purified cathepsin L): 1e+5 AU

CC[C@H](C)[C@H](NS(=O)(=O)c1ccc2ccccc2c1)C(=O)N[C@H](C=O)Cc1c[nH]c2ccccc12 [cathepsin L inhibitor (Napsule-Ile-Tryp), Napsule-Ile-Tryp]
viable cells, doxorubicin plus cathepsin L inhibitor, first concentration [1]: about 80%
viable cells, doxorubicin plus cathepsin L inhibition, first concentration [2]: about 90%

CC(C)CC(NC(=O)C(Cc1ccccc1)NC(=O)OCc1ccccc1)C(=O)C=O.O (stereo not drawn) [cathepsin S inhibitor, Z-Phe-Leu-COCHO.H2O]
cathepsin L activity (arbitrary units) in presence of inhibitor (Purified cathepsin L): 3e+5 AU

O=P1(N(CCCl)CCCl)NCCCO1 (stereo not shown) [cyclophosphamide]
viability at 100 µM [3]: ~70%
viability at 10 µM [3]: ~70%
viability at 1 µM [3]: ~80%
viability at 0.1 µM [3]: ~95%

COc1cc([C@@H]2c3cc4c(cc3[C@@H](O[C@@H]3O[C@@H]5CO[C@@H](C)O[C@H]5[C@H](O)[C@H]3O)[C@H]3COC(=O)[C@H]23)OCO4)cc(OC)c1O [etoposide]
viability at 100 µM [3]: ~10%
viability at 10 µM [3]: ~70%
viability at 1 µM [3]: ~90%
viability at 0.1 µM [3]: ~95%

O=C[C@H](Cc1ccc(O)cc1)NC(=O)[C@H](Cc1ccccc1)NC(=O)OCc1ccccc1 [iCL, Z-Phe-Tyr-aldehyde] (Cbz-Phe-Tyr-aldehyde)
tumor volume reduction at day 27 greater than doxorubicin alone, co-administered with doxorubicin [4, 6]: about 94%
tumor volume reduction at day 27 greater than the control, co-administered with doxorubicin [4, 6]: about 95%
tumor volume reduction at day 27 greater than the control, inhibitor alone ([4]; cathepsin inhibitor alone 30 mg/Kg): about 60%
tumor volume reduction at day 27 greater than doxorubicin, inhibitor alone ([4]; cathepsin inhibitor alone 30 mg/Kg vs doxorubicin 1.5 mg/Kg): about 50%
average tumor volume on day 27, combination with doxorubicin ([4]; nude mice, i.p. on day 11, 14, 17, Dox 1.5 mg/Kg+iCL 30 mg/Kg): approximately 100 mm^3
average tumor volume on day 27, single agent ([4]; nude mice, i.p. on day 11, 14, 17, doxorubicin alone 1.5 mg/Kg or iCL alone 30 mg/Kg): approximately 800 mm^3

CC(=O)N[C@@H](CSC(=O)[C@]1([C@@H](O)C(C)C)NC(=O)[C@H](C)[C@@H]1O)C(=O)O [lactacystin, Lactacystin]
cathepsin L activity (arbitrary units) in presence of inhibitor (Purified cathepsin L): 4.25e+5 AU

N[C@@H](Cc1ccc(N(CCCl)CCCl)cc1)C(=O)O [melphalan]
viability at 1 µM [3]: ~0%
viability at 0.1 µM [3]: ~30%
viability at 0.01 µM [3]: ~60%

O=C1c2c(O)ccc(O)c2C(=O)c2c(NCCNCCO)ccc(NCCNCCO)c21 [mitoxantrone]
viability at 1 µM [3]: ~5%
viability at 0.1 µM [3]: ~10%
viability at 0.01 µM [3]: ~40%

CC/C(=C(\c1ccccc1)c1ccc(OCCN(C)C)cc1)c1ccccc1 [tamoxifen]
viability at 10 µM [3]: ~0%
viability at 1 µM [3]: ~60%
viability at 0.1 µM [3]: ~60%
viability at 0.01 µM [3]: ~75%

CC[C@]1(O)C[C@@H]2CN(CCc3c([nH]c4ccccc34)[C@@](C(=O)OC)(c3cc4c(cc3OC)N(C)[C@H]3[C@@](O)(C(=O)OC)[C@H](OC(C)=O)[C@]5(CC)C=CCN6CC[C@]43[C@@H]65)C2)C1 [vinblastine]
IC50 (SKN-SH/R cells): ~5.62 µM
IC50 (SKN-SH wild type cells): ~100 nM

siRNA: human cathepsin L siRNA based on nucleotides 91-111 of the cathepsin L cDNA (SEQ ID NO: 2), synthesized by Dharmacon (UUCACCUUCCGCUACGUGUUG; listed as RNA, chemistry not given here; listed as Homo sapiens)
cathepsin L expression (Western blot), siRNA alone (cathepsin L; Saos2-R cells transfected with siRNA): completely diminished
cathepsin L expression (Western blot), siRNA and doxorubicin (cathepsin L; Saos2-R cells transfected with siRNA and treated with doxorubicin 10^−5 M): completely diminished
inhibition of cell proliferation, combination of siRNA and doxorubicin ([5]; doxorubicin 10^−5 M): ~90%
cell number, in combination with doxorubicin ([5]; doxorubicin 10^−5 M for 48 hours, untreated 1.6e+6 AU): 1.5e+5 AU
cell number, siRNA transfection alone ([5]; untreated 1.6e+6 AU): 8.0e+5 AU
